# Molecular target: T1, B1R receptor of the rat (rB1R) (Rattus norvegicus, UniProt P97583)
# T1 construct: expressed in transfected cells; host or cells: CHO K1 cells
# T1 sequence (P97583 1-337): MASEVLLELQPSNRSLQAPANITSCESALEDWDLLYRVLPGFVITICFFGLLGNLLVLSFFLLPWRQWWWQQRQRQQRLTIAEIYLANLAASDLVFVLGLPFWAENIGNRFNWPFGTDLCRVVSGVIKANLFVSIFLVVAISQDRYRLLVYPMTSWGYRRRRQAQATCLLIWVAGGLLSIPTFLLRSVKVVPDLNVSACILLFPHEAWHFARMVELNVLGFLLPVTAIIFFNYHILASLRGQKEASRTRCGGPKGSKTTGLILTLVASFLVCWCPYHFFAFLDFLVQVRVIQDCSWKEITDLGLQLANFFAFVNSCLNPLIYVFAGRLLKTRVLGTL
# Assay: Functional investigation on the bradykinin 1 receptor (B1R), FLIPR Ca2+ assay, rB1R cells
# Assay type: cell-based
# Details: 10 μM test substance; CHO K1 cells with rat B1R; agonist Des-Arg9 bradykinin; % of maximum achievable inhibition; 10 µM
# Procedure, shortened: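 Ca2+ influx is measured as peak Fluo-4 fluorescence in a FLIPR protocol with two substance additions, following Lys-Des-[MUT] bradykinin (0.5 nM) or Des-[MUT] bradykinin (100 nM) challenge. Varying antagonist concentrations give % inhibition relative to maximum achievable and an IC50. Determinations in duplicate or triplicate, repeated independently (N>=2).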
row,"B1R antagonism, rat [10 μM] % inhibition [%]",SMILES
1,95,"O=C(CCn1ccc2ccc(N3Cc4cccc(Cl)c4C3=O)cc21)N1CCC2(CC1)CCN(c1ccncc1)CC2 [G_CC-67, 7-Chloro-2-[1-[3-oxo-3-(3-pyridin-4-yl-3,9-diazaspiro[5.5]undecan-9-yl)-propyl]-1H-indol-6-yl]-2,3-dihydro-isoindol-1-one]"

# Same assay, conditions: CHO-K1, 10 μM test substance; CHO K1 cells with rat B1R; agonist Des-Arg9 bradykinin; % of maximum achievable inhibition; read-out: B1R antagonism, rat [10 μM] % inhibition
row,SMILES,inhibition at 10 µM [%]
1,"Cn1c2c(c3c(Cl)cccc31)C(=O)N(c1ccc3ccn(CC(=O)N4CCC5(CC4)CCN(c4ccncc4)CC5)c3c1)C2 [Compound G-23, 8-Chloro-4-methyl-2-[1-[2-oxo-2-(9-pyridin-4-yl-3,9-diazaspiro[5.5]undecan-3-yl)-ethyl]-1H-indol-6-yl]-3,4-dihydro-2H-pyrrolo[3,4-b]indol-1-one]",106
2,"COc1cc(C)c(S(=O)(=O)NCc2cccc3ccn(CC(=O)N4CCC5(CC4)CCN(c4ccncc4)CC5)c23)c(C)c1 [Compound G-24, 4-Methoxy-2,6-dimethyl-N-[[1-[2-oxo-2-(9-pyridin-4-yl-3,9-diazaspiro[5.5]undecan-3-yl)-ethyl]-1H-indol-7-yl]-methyl]-benzenesulfonic acid amide]",103
3,"Cc1cccc2c1C(=O)N(c1ccc3ccn(CC(=O)N4CCC5(CC4)CCN(c4ccncc4)CC5)c3c1)C2 [Compound G-26, 7-Methyl-2-[1-[2-oxo-2-(9-pyridin-4-yl-3,9-diazaspiro[5.5]undecan-3-yl)-ethyl]-1H-indol-6-yl]-2,3-dihydro-isoindol-1-one]",102
4,"Cc1ccc2n1C(=O)N(c1ccc3ccn(CC(=O)N4CCC5(CC4)CCN(c4ccncc4)CC5)c3c1)C2 [Compound G-27, 5-Methyl-2-[1-[2-oxo-2-(9-pyridin-4-yl-3,9-diazaspiro[5.5]undecan-3-yl)-ethyl]-1H-indol-6-yl]-1,2-dihydro-pyrrolo[2,1-e]imidazol-3-one]",99
5,"O=C(Cn1ccc2ccc(N3CCn4c(c(Cl)c5ccccc54)C3=O)cc21)N1CCC2(CC1)CCN(c1ccncc1)CC2 [Compound G-31, 10-Chloro-2-[1-[2-oxo-2-(9-pyridin-4-yl-3,9-diazaspiro[5.5]undecan-3-yl)-ethyl]-1H-indol-6-yl]-3,4-dihydro-2H-pyrazino[1,2-a]indol-1-one]",54
6,"O=C(Cn1ccc2ccc(N3CCn4ccc(Cl)c4C3=O)cc21)N1CCC2(CC1)CCN(c1ccncc1)CC2 [Compound G-33, 8-Chloro-2-[1-[2-oxo-2-(9-pyridin-4-yl-3,9-diazaspiro[5.5]undecan-3-yl)-ethyl]-1H-indol-6-yl]-3,4-dihydro-2H-pyrrolo[1,2-a]pyrazin-1-one]",46
7,"COc1cc(C)c(S(=O)(=O)Nc2ccc3ccn(CC(=O)N4CCC(N5CCN(C)CC5)CC4)c3c2)c(C)c1 [G_CC-2, 4-Methoxy-2,6-dimethyl-N-[1-[2-[4-(4-methyl-piperazin-1-yl)-piperidin-1-yl]-2-oxo-ethyl]-1H-indol-6-yl]-benzenesulfonic acid amide]",70
8,"Cc1cc(S(=O)(=O)Nc2ccc3ccn(CC(=O)N4CCN(CC5CCN(C)CC5)CC4)c3c2)c(C)cc1Cl [G_CC-8, 4-Chloro-2,5-dimethyl-N-[1-[2-[4-[(1-methyl-piperidin-4-yl)-methyl]-piperazin-1-yl]-2-oxo-ethyl]-1H-indol-6-yl]-benzenesulfonic acid amide]",100
9,"COc1cc(C)c(S(=O)(=O)Nc2cccc3ccn(CC(=O)N4CCC5(CC4)CCN(Cc4ccccc4)C5=O)c23)c(C)c1 [G_CC-32, N-[1-[2-(3-Benzyl-4-oxo-3,8-diazaspiro[4.5]decan-8-yl)-2-oxo-ethyl]-1H-indol-7-yl]-4-methoxy-2,6-dimethyl-benzenesulfonic acid amide]",101

# Other lines, results leading:
row,inhibition at 10 µM [%],SMILES
1,103,"COc1cc(C)c(S(=O)(=O)Nc2cccc3ccn(CCC(=O)N4CCN(CC5CCN(C)CC5)CC4)c23)c(C)c1 [G_CC-43, 4-Methoxy-2,6-dimethyl-N-[1-[3-[4-[(1-methyl-piperidin-4-yl)-methyl]-piperazin-1-yl]-3-oxo-propyl]-1H-indol-7-yl]-benzenesulfonic acid amide]"
2,102,"COc1cc(C)c(S(=O)(=O)Nc2cccc3ccn(CCC(=O)NCCC4CCN(c5ccncc5)CC4)c23)c(C)c1 [G_CC-47, 3-[7-[[(4-Methoxy-2,6-dimethyl-phenyl)sulfonyl]amino]-1H-indol-1-yl]-N-[2-(1-pyridin-4-yl-piperidin-4-yl)-ethyl]-propionamide]"
3,96,"COc1cc(C)c(S(=O)(=O)Nc2cccc3ccn(CCC(=O)N4CCC5(CC4)CCN(c4ccncc4)CC5)c23)c(C)c1 [G_CC-54, 4-Methoxy-2,6-dimethyl-N-[1-[3-oxo-3-(3-pyridin-4-yl-3,9-diazaspiro[5.5]undecan-9-yl)-propyl]-1H-indol-7-yl]-benzenesulfonic acid amide]"
4,99,"Cc1cc(S(=O)(=O)Nc2cccc3ccn(CCC(=O)N4CCN(CC5CCN(C)CC5)CC4)c23)c(C)cc1Cl [G_CC-62, 4-Chloro-2,5-dimethyl-N-[1-[3-[4-[(1-methyl-piperidin-4-yl)-methyl]-piperazin-1-yl]-3-oxo-propyl]-1H-indol-7-yl]-benzenesulfonic acid amide]"
5,104,"COc1cc(C)c(S(=O)(=O)Nc2ccc3ccn(CC(=O)N(C)CCCN4CCN(c5ccncc5)CC4)c3c2)c(C)c1 [G_CC-76, 2-[6-[[(4-Methoxy-2,6-dimethyl-phenyl)sulfonyl]amino]-1H-indol-1-yl]-N-methyl-N-[3-(4-pyridin-4-yl-piperazin-1-yl)-propyl]-acetamide]"
6,101,"COc1cc(C)c(S(=O)(=O)Nc2cccc3ccn(CC(=O)N(C)CCCN4CCN(c5ccncc5)CC4)c23)c(C)c1 [G_CC-88, 2-[7-[[(4-Methoxy-2,6-dimethyl-phenyl)sulfonyl]amino]-1H-indol-1-yl]-N-methyl-N-[3-(4-pyridin-4-yl-piperazin-1-yl)-propyl]-acetamide]"
7,100,"COc1cc(C)c(S(=O)(=O)Nc2cccc3ccn(CC(=O)N4CCC5(CC4)CCN(c4ccncc4)CC5)c23)c(C)c1 [G_CC-91, 4-Methoxy-2,6-dimethyl-N-[1-[2-oxo-2-(3-pyridin-4-yl-3,9-diazaspiro-[5.5]undecan-9-yl)-ethyl]-1H-indol-7-yl]-benzenesulfonic acid amide]"
